Source: patent publication US20260158009A1 (GENZYME CORPORATION, priority 2023, published 2026)

Legend:
[1] = biological target: T1, hRIPK1 (aa 1-375) fusion protein (Homo sapiens, UniProt Q13546); test: ADP-Glo kinase assay: catalytic activity of RIPK1 (autophosphorylation, conversion of ATP to ADP); type: biochemical
T1 construct: hRIPK1 (aa 1-375) fusion protein
T1 sequence (Q13546 1-375): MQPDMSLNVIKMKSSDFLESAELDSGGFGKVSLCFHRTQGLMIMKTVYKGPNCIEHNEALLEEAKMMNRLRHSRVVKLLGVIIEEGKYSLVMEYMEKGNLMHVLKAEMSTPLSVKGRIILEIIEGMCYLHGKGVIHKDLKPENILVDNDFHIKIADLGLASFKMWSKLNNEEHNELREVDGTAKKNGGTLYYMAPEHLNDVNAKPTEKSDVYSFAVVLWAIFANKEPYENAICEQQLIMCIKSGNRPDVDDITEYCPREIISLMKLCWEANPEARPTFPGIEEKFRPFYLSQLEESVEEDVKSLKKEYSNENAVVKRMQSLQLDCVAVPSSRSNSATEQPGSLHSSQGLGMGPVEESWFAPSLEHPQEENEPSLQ
Method in brief: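 hRIPK1 (aa 1-375) fusion protein (3.6 μg/ml final) was preincubated 30 min at rt with compound (33300-1.69 nM, 1% DMSO), then 50 μM ATP was added for 240 min at rt. ADP from autophosphorylation was measured by ADP-Glo luminescence and curves fitted by nonlinear regression.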

U937 cells = test: Cellular assay in U937 cells: activity of RIPK1 inhibitors on TNFα/zVAD.fmk-induced cell death (necroptosis), CellTiter 96 AQueous (MTS) readout; type: cell-based; conditions: Homo sapiens, U-937
Method in brief: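 Necroptosis was measured by viable-cell MTS reduction (4 h, absorbance 490 nm) after overnight (18–24 h) 37° C culture. Cell suspensions of U937 cells carried TNFα (100 ng/ml) plus zVAD.fmk (50 μM) before compound was added. A 10-point curve (10 μM–0.26 nM or 1 μM–0.07 nM) was run in duplicate, normalised to the control lacking TNFα/zVAD.fmk.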

IC50 [1] [µM]	SMILES	IC50 (U937 cells) [µM]
0.029	Cc1cc(-c2cncc(C[C@H]3CC[C@H](C(=O)N4OCC[C@H]4c4cnccn4)CC3)c2)n(C)n1 [compound 305, trans-[4-[[5-(2,5-dimethylpyrazol-3-yl)-3-pyridyl]methyl]cyclohexyl]-[(3S)-3-pyrazin-2-ylisoxazolidin-2-yl]methanone]	0.043
0.017	Cc1nccn1-c1cc(F)cc(C[C@H]2CC[C@H](C(=O)N3OCC[C@H]3c3cncc(C#N)c3)CC2)c1 [compound 210, trans-5-[(3S)-2-[4-[[3-fluoro-5-(2-methylimidazol-1-yl)phenyl]methyl]cyclohexanecarbonyl]isoxazolidin-3-yl]pyridine-3-carbonitrile]	0.025
0.037	NC(=O)c1cc2c(cc1F)ncn2C[C@H]1CC[C@H](C(=O)N2OCC[C@H]2c2cc(F)cc(F)c2)CC1 [compound 71, trans-1-((4-((S)-3-(3,5-difluorophenyl)isoxazolidine-2-carbonyl)cyclohexyl)methyl)-5-fluoro-1H-benzo[d]imidazole-6-carboxamide]	0.093
0.023	Cn1nccc1C[C@H]1CC[C@H](C(=O)N2OCC[C@H]2c2cc(F)cc(C#N)c2)CC1 [compound 237, trans-3-fluoro-5-[(3S)-2-[4-[(2-methylpyrazol-3-yl)methyl]cyclohexanecarbonyl]isoxazolidin-3-yl]benzonitrile]	0.066
0.042	N#Cc1cc(F)cc([C@@H]2CCON2C(=O)[C@H]2CC[C@H](Cn3cc4cc(F)ccc4n3)CC2)c1 [compound 56, trans-3-fluoro-5-((S)-2-(4-((5-fluoro-2H-indazol-2-yl)methyl)cyclohexane-1-carbonyl)isoxazolidin-3-yl)benzonitrile]	0.109
0.02	N#Cc1cc(F)cc([C@@H]2CCON2C(=O)[C@H]2CC[C@H](Cn3ccc4cc(F)c(C#N)cc43)CC2)c1 [compound 22, trans-1-((4-((S)-3-(3-cyano-5-fluorophenyl)isoxazolidine-2-carbonyl)cyclohexyl)methyl)-5-fluoro-1H-indole-6-carbonitrile]	0.002
0.017	N#Cc1cc(F)cc([C@@H]2CCON2C(=O)[C@H]2CC[C@H](Cc3cc(F)c4c(c3)C(=O)NC4)CC2)c1 [compound 219, trans-3-fluoro-5-[(3S)-2-[4-[(7-fluoro-3-oxo-isoindolin-5-yl)methyl]cyclohexanecarbonyl]isoxazolidin-3-yl]benzonitrile]	0.003
0.052	Cc1ncn(C[C@H]2CC[C@H](C(=O)N3OCC[C@H]3c3cc(F)cc(C#N)c3)CC2)c1C#N [compound 88, trans-1-((4-((S)-3-(3-cyano-5-fluorophenyl)isoxazolidine-2-carbonyl)cyclohexyl)methyl)-4-methyl-1H-imidazole-5-carbonitrile]	0.157
0.027	Cc1nc(C[C@H]2CC[C@H](C(=O)N3OCC[C@H]3c3cnccn3)CC2)cs1 [compound 240, trans-[4-[(2-methylthiazol-4-yl)methyl]cyclohexyl]-[(3S)-3-pyrazin-2-ylisoxazolidin-2-yl]methanone]	0.052
0.02	Cc1c2ccccc2nn1C[C@H]1CC[C@H](C(=O)N2OCC[C@H]2c2cc(F)cc(F)c2)CC1 [compound 62, trans-((S)-3-(3,5-difluorophenyl)isoxazolidin-2-yl)(4-((3-methyl-2H-indazol-2-yl)methyl)cyclohexyl)methanone]	0.022
0.021	O=C([C@H]1CC[C@H](Cn2ncc3cc(F)ccc32)CC1)N1OCC[C@H]1c1cc(F)cc(F)c1 [compound 55, trans-((S)-3-(3,5-difluorophenyl)isoxazolidin-2-yl)(4-((5-fluoro-1H-indazol-1-yl)methyl)cyclohexyl)methanone]	0.003
0.014	Cc1cn2nc(C[C@H]3CC[C@H](C(=O)N4OCC[C@H]4c4cc(F)cc(C#N)c4)CC3)c(C)cc2n1 [compound 292, trans-3-[(3S)-2-[4-[(2,7-dimethylimidazo[1,2-b]pyridazin-6-yl)methyl]cyclohexanecarbonyl]isoxazolidin-3-yl]-5-fluoro-benzonitrile]	0.004
0.01	Cc1ccc(C[C@H]2CC[C@H](C(=O)N3OCC[C@H]3c3cnccn3)CC2)cc1C#N [compound 139, trans-2-methyl-5-[[4-[(3S)-3-pyrazin-2-ylisoxazolidine-2-carbonyl]cyclohexyl]methyl]benzonitrile]	0.002
0.044	Cc1cn2cc(C[C@H]3CC[C@H](C(=O)N4OCC[C@H]4c4cnccn4)CC3)ccc2n1 [compound 226, trans-[4-[(2-methylimidazo[1,2-a]pyridin-6-yl)methyl]cyclohexyl]-[(3S)-3-pyrazin-2-ylisoxazolidin-2-yl]methanone]	0.04
0.014	N#Cc1cc2c(cnn2C[C@H]2CC[C@H](C(=O)N3OCC[C@H]3c3cc(F)cc(F)c3)CC2)cc1F [compound 86, trans-1-((4-((S)-3-(3,5-difluorophenyl)isoxazolidine-2-carbonyl)cyclohexyl)methyl)-5-fluoro-1H-indazole-6-carbonitrile]	0.001
0.037	Cc1nnc2c(F)cc(C[C@H]3CC[C@H](C(=O)N4OCC[C@H]4c4ccc(F)cc4)CC3)cn12 [compound 320, trans-[4-[(8-fluoro-3-methyl-[1,2,4]triazolo[4,3-a]pyridin-6-yl)methyl]cyclohexyl]-[(3S)-3-(4-fluorophenyl)isoxazolidin-2-yl]methanone]	0.028
0.022	Cc1nc2ccc(C[C@H]3CC[C@H](C(=O)N4OCC[C@H]4c4cc(F)cc(C#N)c4)CC3)cn2n1 [compound 221, trans-3-fluoro-5-[(3S)-2-[4-[(2-methyl-[1,2,4]triazolo[1,5-a]pyridin-6-yl)methyl]cyclohexanecarbonyl]isoxazolidin-3-yl]benzonitrile]	0.019
0.125	Cc1ccc([C@@H]2CCON2C(=O)[C@H]2CC[C@H](Cc3cc(C)c4nc(C)nn4c3)CC2)cn1 [compound 325, trans-[4-[(2,8-dimethyl-[1,2,4]triazolo[1,5-a]pyridin-6-yl)methyl]cyclohexyl]-[(3S)-3-(6-methyl-3-pyridyl)isoxazolidin-2-yl]methanone]	0.108
0.035	Cc1nnc2ccc(C[C@H]3CC[C@H](C(=O)N4OCC[C@H]4c4cc(F)cc(C#N)c4)CC3)cn12 [compound 224, trans-3-fluoro-5-[(3S)-2-[4-[(3-methyl-[1,2,4]triazolo[4,3-a]pyridin-6-yl)methyl]cyclohexanecarbonyl]isoxazolidin-3-yl]benzonitrile]	0.017
0.027	O=C([C@H]1CC[C@H](Cn2cc3cc(F)ccc3n2)CC1)N1OCC[C@H]1c1cc(F)cc(F)c1 [compound 57, trans-((S)-3-(3,5-difluorophenyl)isoxazolidin-2-yl)(4-((5-fluoro-2H-indazol-2-yl)methyl)cyclohexyl)methanone]	0.041
0.019	O=C([C@H]1CC[C@H](Cn2cnc3ccccc32)CC1)N1OCC[C@H]1c1cc(F)cc(F)c1 [compound 8, trans-(4-((1H-benzo[d]imidazol-1-yl)methyl)cyclohexyl)((S)-3-(3,5-difluorophenyl)isoxazolidin-2-yl)methanone]	0.006
0.032	Cc1ncc([C@@H]2CCON2C(=O)[C@H]2CC[C@H](Cc3cc(F)c4ncnn4c3)CC2)cc1F [compound 392, trans-[(3S)-3-(5-fluoro-6-methylpyridin-3-yl)-1,2-oxazolidin-2-yl]-[4-[(8-fluoro-[1,2,4]triazolo[1,5-a]pyridin-6-yl)methyl]cyclohexyl]methanone]	0.018
0.004	Cn1ncc2ccc(C[C@H]3CC[C@H](C(=O)N4OCC[C@H]4c4cc(F)cc(C#N)c4)CC3)cc21 [compound 294, trans-3-fluoro-5-[(3S)-2-[4-[(1-methylindazol-6-yl)methyl]cyclohexanecarbonyl]isoxazolidin-3-yl]benzonitrile]	0.001
0.018	Cc1cc(C[C@H]2CC[C@H](C(=O)N3OCC[C@H]3c3cc(F)cc(C#N)c3)CC2)cn2ncnc12 [compound 249, trans-3-fluoro-5-[(3S)-2-[4-[(8-methyl-[1,2,4]triazolo[1,5-a]pyridin-6-yl)methyl]cyclohexanecarbonyl]-1,2-oxazolidin-3-yl]benzonitrile]	0.005
0.015	Cn1nccc1C[C@H]1CC[C@H](C(=O)N2OCC[C@H]2c2cc(F)cc(F)c2)CC1 [compound 307, trans-[(3S)-3-(3,5-difluorophenyl)isoxazolidin-2-yl]-[4-[(2-methylpyrazol-3-yl)methyl]cyclohexyl]methanone]	0.002
0.012	N#Cc1ccc2cnn(C[C@H]3CC[C@H](C(=O)N4OCC[C@H]4c4cc(F)cc(F)c4)CC3)c2c1 [compound 29, trans-1-((4-((S)-3-(3,5-difluorophenyl)isoxazolidine-2-carbonyl)cyclohexyl)methyl)-1H-indazole-6-carbonitrile]	0.001
